Experimental data: the NIST ThermoML archive (doi:10.1021/je700693z)
± gives the expanded uncertainty stated by the source.

Assays:
[1] = for mass density: 298.15 K, 101.33 kPa, Liquid, Vibrating tube method
[2] = Molar enthalpy of transition or fusion; settings: Crystal; DSC

Row | Structure (SMILES) | mass density [1] [kg/m3] | Glass transition temperature ([1]; DTA) [°C] | Molar enthalpy of transition or fusion [2] [kcal/mol] | Normal melting temperature ([1]; Crystal, DTA) [°C]
1 | CCCC[n+]1ccn(CC)c1.O=S(=O)([N-]S(=O)(=O)C(F)(F)F)C(F)(F)F | 1401.8 ± 14 | -92.2 ± 3 |  | 
2 | CCn1cc[n+](CC)c1.O=S(=O)([N-]S(=O)(=O)C(F)(F)F)C(F)(F)F [1,3-diethylimidazolium bis[(trifluoromethyl)sulfonyl]imide] | 1476 ± 15 | -67.2 ± 3 | 4.88 ± 0.191 | -10.5 ± 0.4
3 | CCCC[n+]1ccn(CC)c1.F[P-](F)(F)(F)(F)F [1-butyl-3-ethylimidazolium hexafluorophosphate] | 1327.6 ± 12 | -80.2 ± 3 |  | 
4 | CCCCCCn1cc[n+](CC)c1.O=S(=O)([N-]S(=O)(=O)C(F)(F)F)C(F)(F)F [1-hexyl-3-ethylimidazolium bis(trifluoromethylsulfonyl)imide] | 1345.4 ± 13 | -88.3 ± 3 |  | 
